This experiment has as its system human monocytes (THP-1 cell line). Put plainly: multiplex functional cell-based HTS assay (5-plex): expression of co-stimulatory molecules and cytokines by THP-1 monocytes. On the set-up: IL-8 / RANTES / TNFα: unit not given here. The following applies: THP-1 cells incubated overnight with 10^-5M test compound; for IL-8 / RANTES / TNFα: concentration in cell culture supernatant, Luminex, mean of two wells; for CD54 / CD80: flow cytometry, specific staining (MFI minus isotype control MFI). How it is done:
Test compounds/candidate agents were diluted in 100% DMSO at a concentration of 10^−2M and stored in 96 well “matrix” plates at −80° C. These compound stocks were employed as a pool of mother plates. Compounds to be assayed were diluted 100 times in sterile PBS using a liquid handling robot “Evolution P3” (PerkinElmer) to a concentration of 10^−4M, and stored at −20° C. until they were used for the assay. In total, 20,000 candidate agents were tested.
10^5 THP-1 cells were incubated overnight with 10^−5M of test compound (20 μl of 10^−4M compound stock solution was added to 180 μl of the cells suspension). Incubations were carried out in U bottom 96 well tissue culture plates. Each compound was tested in duplicate. Collection of the cell culture supernatants and cell surface receptor staining were carried out using the “Biomek 2000” liquid handling robot (Becton Coulter).
Expression of cell surface receptors was analyzed by flow cytometry using the following antibodies: PE-conjugated anti-human CD80 and APC conjugated anti-human CD54 (ICAM-1) and matching labeled isotype controls, all from BD Pharmingen. Cells in the first well of each duplicate were stained with isotype controls (IC). In the second well, cells were stained with CD80 and CD54 antibodies. Stained cells were analyzed on a flow cytometer (FACSArray cytometer (BD Pharmingen)). The mean fluorescence intensity (MFI) for IC and CD80/CD54 antibodies stained cells were determined using “FlowJo” software (Tree Star, Inc.). The IC MFIs were subtracted from CD80/CD54 MFIs and results were recorded as specific staining and used for the following data analysis.
The concentrations of IL-8, RANTES and TNFα in cell culture supernatants were determined for each well of the duplicates using the “Fluorokine MultiAnalyte Profiling” kits (R&D Systems). Samples were analyzed on the Luminex 100IS system and data analysis was performed using Luminex 2.3IS software (both from Luminex corporation). The mean value of two wells was recorded and used for the following data analysis.
To identify agents that stimulate the innate immune system, a multiplex functional cell-based assay was used. The assay used human monocytes (THP-1 cell line) as target cells and expression of co-stimulatory molecules (CD54 and CD80) and immune-activating cytokines (IL-8, RANTES and TNFα) as assay readouts. These molecules play major role in the innate immune response and are required for effective activation of the adaptive immune system.
Background: A flow cytometer gives signals particle by particle.

Here are results for five molecules from patent US20070059319A1, “Methods of screening for immuno-adjuvants and vaccines comprising anti-microtubule immuno-adjuvants” (Caliper Life Sciences, Inc., priority 2005, published 2007).

`COc1cc2c(c(OC)c1OC)-c1ccc(OC)c(=O)cc1[C@@H](NC(C)=O)CC2` [Colchicine]: the IL-8 is reported as 7499.42, the RANTES worked out at 4383.62, the TNFα is on record as 66.37 and the CD54 worked out at 554.50. Also, the CD80 turned out to be 3.69.

With `CN[C@H]1CCc2cc(OC)c(OC)c(OC)c2-c2ccc(OC)c(=O)cc21` [Demecolcine], the IL-8 is reported as 2533.58, the RANTES stood at 740.62, the TNFα was 95.20 and the CD54 is 600.87. This molecule showed a CD80 of 4.91.

On to `CC[C@]1(O)C[C@@H]2CN(CCc3c([nH]c4ccccc34)[C@@](C(=O)OC)(c3cc4c(cc3OC)N(C)[C@H]3[C@@](O)(C(=O)OC)[C@H](OC(C)=O)[C@]5(CC)C=CCN6CC[C@]43[C@@H]65)C2)C1` [Vinblastine], for which the IL-8 is on record as 6543.63, the RANTES came to 4568.01, the TNFα came to 78.47 and the CD54 stood at 665.18. In addition, the CD80 worked out at 3.89.

`CC[C@]1(O)C[C@H]2CN(CCc3c([nH]c4ccccc34)[C@@](C(=O)OC)(c3cc4c(cc3OC)N(C=O)[C@H]3[C@@](O)(C(=O)OC)[C@H](OC(C)=O)[C@]5(CC)C=CCN6CC[C@]43[C@@H]65)C2)C1` [Vincristine] returned an IL-8 of 8334.51, an RANTES of 5232.60, a TNFα of 88.30 and a CD54 of 814.96. Further, the CD80 stood at 3.90.

Take bacterial lipopolisaccharide [LPS]: the IL-8 is 13562.99, the RANTES was 3217.60, the TNFα turned out to be 866.78 and the CD54 was 3662.56. Also, the CD80 is listed as 64.12.
